{"source": "patent US9808434B2", "about": "“Compound for treating cancer and diabetes” (CITY OF HOPE, priority 2011, dated 2017)", "key": {"[1]": {"experiment": "COH-SR4 in mice serum, LC-MS/MS", "format": "in vivo, mouse", "conditions": "4 mg/kg b.w. oral, alternate day, 8 weeks; blood within 2 h of final dose", "description": "Mice (n=3 each for control and COH-SR4 treatment) were administered either 0.2 mL corn oil or 100 μg COH-SR4/0.2 mL corn oil/mice (4 mg/kg b.w.) by oral gavage on alternate days for 8 weeks. On the last day, the blood was collected within 2 h after final dosage. To 50 μL serum was added 0.5 μL 5 μg/μL 6D-SR4 standard in DMSO and 500 μL ethyl acetate. The samples were vortexed for 1 min and then spun down in a bench-top centrifuge for 2 min. Then 400 μL of the organic layer was collected, evaporated to dryness and redisolved in 500 μL methanol for analysis. After an initial concentration test, 50 μL were taken and diluted to 2 mL with methanol for final analysis. […]\nCOH-SR4 and 6D-SR4 were separated by HPLC using an Agilent Zorbax 0.5×150 mm C18, 5 μm column with a flow rate of 50 μL/min and a gradient of 65% B to 95% B over 4 min, then 2 min at 95% B and 1 min back to 65% B. Buffer A was 5 mM ammonium formate and buffer B was 5 mM ammonium formate in methanol. The elute from the column was introduced into an Agilent 6410 triple quadrupole tandem mass spectrometer by electrospray ionization (ESI) through a capillary maintained at 4 kV, using 6 L/min nitrogen nebulizing gas at 350° C. and 15 psi, fragmentor voltage=190 V. The following transitions were monitored in positive ion mode: 344>127.1 and 355>130.1 (collision energy=28 V), 344>161.9 and 355>164.9 (C.E.=20 V) for COH-SR4 and 6dSR4. […]"}, "[2]": {"test_system": "isolated mouse liver mitochondria", "experiment": "Mitochondrial swelling assay", "conditions": "potassium acetate buffer with valinomycin", "description": "Mitochondrial swelling was measured in non-respiring mouse liver mitochondria incubated in buffered isotonic potassium acetate in the presence of valinomycin (24,25). […] Absorbance of the mitochondrial suspension before and after addition test compounds was measured every 10 seconds using a Varian Cary 300 spectrophotometer (Agilent Technologies, Santa Clara, Calif.). Swelling was recorded from the decrease in absorbance at 600 nm and expressed as percentage from initial reading after addition of mitochondria.\nMitochondrial membrane swelling was detected as decrease in absorbance at 600 nm following the addition of COH-SR4 or FCCP alone or in the presence of cysclosporin A (CSA, 1 μM) on isolated mouse liver mitochondria respiring on succinate (10 mM) in the presence of rotenone (1 μM) and valinomycin (5 μM) in potassium acetate buffer. […] Arrow indicates time of addition of test compounds into the mitochondria suspension."}, "human VEGF promoter": {"test_system": "human VEGF promoter", "experiment": "VEGF promoter luciferase reporter in U251", "format": "cell-based", "conditions": "U251, 1 or 3 μM, 24 hours", "description": "U251 cells expressing luciferase reporter containing human VEGF promoter were incubated with various concentrations of COH-SR4 (0, 1, or 3 μM) for 24 hours. Luciferase activity was determined and normalized to the cell number for each treatment. Data were represented as a ratio to vehicle control that was treated by DMSO."}, "H358 lung cancer tumor": {"test_system": "H358 lung cancer tumor", "experiment": "Histopathology of H358 tumor sections", "format": "in vivo, mouse", "conditions": "treated vs control", "description": "For lung cancer studies, control and COH-SR4 treated H358 lung cancer bearing mice tumor sections were used for histopathologic analyses. Immuno-histochemistry analyses were performed for Ki67, CD31, E-cadherin, and pAMPK expressions. […] Sections were counterstained with Hematoxylin (blue). Photomicrographs at 40× magnification were acquired using Olympus DP 72 microscope and were processed with DP2-BSW software. Percent staining was determined by measuring positive immuno-reactivity per unit area. The intensity of antigen staining was quantified by digital image analysis using Image Pro plus 6.3 software.\nControl and COH-SR4 treated tumor sections obtained from the in-vivo animal studies of Example 31 were used for histopathologic analyses. […] Arrows represent the area for positive staining for an antigen. Bars represent means with 95% confidence intervals (n=5). Asterisks denote statistically significant differences (p<0.001) compared with control by two-sided Student's t test. Statistical significance of difference was determined following image analyses as described in methods section."}, "SK-MEL2": {"test_system": "SK-MEL2", "experiment": "Intracellular ATP production, luminescence kit", "format": "cell-based, human", "conditions": "5 μM, less than 1 h", "description": "ATP production from cells treated with test compounds were measured using the Luminescent ATP Detection Assay Kit. AMP, ATP and ADP were measured by UV-HPLC.\nOne of the consequences of mitochondria uncoupling is decrease intracellular ATP production, leading to increased AMP:ATP ratio and triggering activation of the energy-sensitive enzyme AMPK. It has been previously shown that COH-SR4 indirectly activates AMPK in a time- and dose-dependent manner in both HepG2 cells and 3T3-adipocytes. […] In melanomas, mutation rates for BRAF NRAS and LKB1 are 50-70%, 5-30%, and 10%, respectively. […] AMPK activation may cause a cell cycle arrest associated with stabilization of p53 and the cyclin-dependent kinase inhibitors p21^WAF1 and p27^CIP1."}}}
{"compound": "O=C(Nc1cc(Cl)cc(Cl)c1)Nc1cc(Cl)cc(Cl)c1", "note": "[COH-SR4, 1,3-bis(3,5-dichlorophenyl) urea]", "values": [{"measurement": "serum concentration", "setting": "[1]", "result": "342 ± 44", "unit": "ng/mL"}, {"measurement": "serum concentration (equivalent)", "setting": "[1]", "result": "1000 ± 220", "unit": "nM"}, {"measurement": "mitochondrial swelling (absorbance at 600 nm)", "setting": "[2]", "result": "mitochondrial swelling was observed"}, {"measurement": "luciferase expression (VEGF promoter)", "setting": "human VEGF promoter", "result": "inhibited luciferase expression of VEGF protein"}, {"measurement": "Ki67 and CD31 levels", "setting": "H358 lung cancer tumor; ABC staining", "result": "decreased the levels of proliferation marker Ki67, and angiogenesis marker CD31"}, {"measurement": "pAMPK and E-cadherin levels", "setting": "H358 lung cancer tumor", "result": "increased the levels of pAMPK and normal differentiation marker E-cadherin"}, {"measurement": "intracellular ATP production", "setting": "SK-MEL2", "result": "rapid decline"}]}
